Experiments:
[1] = target: BTK^C481S (Homo sapiens (Human), UniProt Q06187, C481S); assay: BTK enzyme activity assay; format: biochemical; details: 200 μM ATP; 33P-ATP, filter-binding method
Description: The specific assay process of BTK enzyme activity assay is as follows: Buffer: 20 mM 2-[4-(2-hydroxyethyl)-1-piperazinyl]ethanesulfonic acid (Hepes) (pH 7.5), 10 mM magnesium chloride, 1 mM ethylenebis(oxyethylenenitrilo)tetraacetic acid (EGTA), 0.02% polyoxyethylene dodecyl ether (Brij35), 0.02 mg/mL BSA, 0.1 mM sodium vanadate (Na3VO4), 2 mM dithiothreitol (DTT), 1% DMSO, 200 μM adenosine triphosphate (ATP). • 1. The substrate was prepared in freshly prepared reaction buffer; • 2. The required cofactor was added to the above-mentioned substrate solution; • 3. The kinase BTK^C481S was added to the above-mentioned substrate solution and mixed well; • 4. The compound dissolved in DMSO was added to the kinase reaction mixture by Echo550 (Acoustic technology; nanoliter range), and the mixture was incubated at room temperature for 20 minutes; • 5. ^33P-ATP (specific radioactivity of 10 μCi/μL) was added to the reaction mixture to initiate the reaction; • 6. The mixture was incubated at room temperature for 2 hours; • 7. The radioactivity was detected by filter-binding method; • 8. Kinase activity data represented the percentage of remaining kinase activity in the assay sample compared to the vehicle (dimethyl sulfoxide) reaction.

[2] = test system: TMD8 cells; assay: BTK cell activity assay (CellTiter Glo); format: cell-based; details: Homo sapiens, Cell Titer Glo, read-out: Relative IC50
Description: 1. Cell Culture and Passage
The medium, trypsin and 1×PBS used in the cell passage process were preheated in a 37° C. water bath. The supernatant was aspirated.
1 mL of trypsin was added to rinse, and the rinse solution was aspirated. 1 mL of trypsin was added, respectively, and cells were digested at 37° C. until the cells fell off. 10 mL of culture medium was added and mixed well. The mixture was centrifuged at 1000 rpm for 5 min and the cells were resuspended in 10 mL of culture medium. 0.7 mL of cell suspension was pipetted into a counting cup and counted on ViCell XR to respectively obtain a cell density of 0.327 million/mL. 1.17 mL of cell suspension and culture medium were weighed, respectively, to dilute the cell suspension. According to the microplate layout diagram below, 100 μL of phosphate buffer was added to the peripheral wells of the 384-well microplate, and 40 μL of cell suspension was added to other wells, respectively. The cell plate was then cultured in an incubator.
2. Dosing • (1) Preparation of compound:
A 9 μL dilution of the compound to be assayed was added to a shallow-well plate for Pod (Labcyte, #LP-0200). The shallow-well plate was centrifuged at 2500 rpm for 30 s. • (2) The cell plate was removed from the incubator. • (3) According to the microplate layout diagram below, compounds were serially diluted 3-fold in Pod to obtain 10 concentrations. The diluted compounds were added to the cell plate at 100 nL, respectively, and then the cell plate was returned to the incubator for culture. • 3. At Day 0, 20 μL of CellTiter Glo was added to the plate with DMSO added, and the mixture was shaken in the dark for 10 minutes. The plate was read with Envision. • 4. At Day 5: CTG was added and the plate was read. • (1) After being cultured for 72 h, 20 μL of Cell Titer Glo was added to the cell plate, and the mixture was shaken in the dark for 10 minutes. • (2) The plate was read with Envision.
Assay Results • 1. Average value and standard deviation of 0% inhibition (DMSO well, MAX) and 100% inhibition (day 0, DMSO) in each group were calculated; • 2. […]

BTK^C481S, sequence (Q06187 whole entry C481S): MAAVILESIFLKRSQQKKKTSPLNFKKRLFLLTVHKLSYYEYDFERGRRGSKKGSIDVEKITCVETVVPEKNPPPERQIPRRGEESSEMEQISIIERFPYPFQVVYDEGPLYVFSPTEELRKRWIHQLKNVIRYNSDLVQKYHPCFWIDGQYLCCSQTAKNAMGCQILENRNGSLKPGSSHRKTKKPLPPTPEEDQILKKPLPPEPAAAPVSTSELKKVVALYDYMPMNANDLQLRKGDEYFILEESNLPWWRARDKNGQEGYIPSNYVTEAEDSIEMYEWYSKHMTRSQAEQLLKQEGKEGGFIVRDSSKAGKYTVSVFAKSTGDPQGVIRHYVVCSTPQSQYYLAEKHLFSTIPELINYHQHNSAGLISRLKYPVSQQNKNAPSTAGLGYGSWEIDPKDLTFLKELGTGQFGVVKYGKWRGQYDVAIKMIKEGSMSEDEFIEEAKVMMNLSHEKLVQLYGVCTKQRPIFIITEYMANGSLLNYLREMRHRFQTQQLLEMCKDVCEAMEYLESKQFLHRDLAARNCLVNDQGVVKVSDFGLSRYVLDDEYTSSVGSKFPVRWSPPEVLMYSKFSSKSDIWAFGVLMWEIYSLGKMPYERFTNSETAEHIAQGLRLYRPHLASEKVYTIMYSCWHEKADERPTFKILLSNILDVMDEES

| SMILES | IC50 [1] [nM] | IC50 [2] [nM] |
| --- | --- | --- |
| O=C(c1ccc(Oc2ccccc2)cc1Cl)c1c[nH]c2ncnc(N[C@H]3CO[C@H](CO)C4CC43)c12 (stereo partly shown) [Compound 1] | 1.7 |  |
| O=C(c1ccc(Oc2ccccc2)cc1Cl)c1c[nH]c2ncnc(N[C@H]3CO[C@H](CO)C[C@@H]3F)c12 [Compound 3] | 6.7 | 217 |
| N#C[C@@H]1CC[C@@H](Nc2ncnc3[nH]cc(C(=O)c4ccc(Oc5ccccc5)cc4Cl)c23)CO1 [Compound 5] | 10.7 |  |
| N#CC[C@@H]1CC[C@@H](Nc2ncnc3[nH]cc(C(=O)c4ccc(Oc5ccccc5)cc4Cl)c23)CO1 [Compound 6] | 6.5 |  |
| CO[C@H]1C[C@@H](CO)OC[C@@H]1Nc1ncnc2[nH]cc(C(=O)c3ccc(Oc4ccccc4)cc3Cl)c12 [Compound 7] | 43.6 |  |
| CO[C@@H]1C[C@@H](CO)OC[C@@H]1Nc1ncnc2[nH]cc(C(=O)c3ccc(Oc4ccccc4)cc3C)c12 [Compound 9] | 15.2 |  |

The remaining molecules from weak to strong by IC50 [1], led by results:

| IC50 [1] [nM] | SMILES | IC50 [2] [nM] |
| --- | --- | --- |
| 39.8 | CO[C@@H]1C[C@@H](CO)OC[C@@H]1Nc1ncnc2[nH]cc(C(=O)c3ccc(Oc4ccccc4F)cc3Cl)c12 [Compound 12] |  |
| 15.1 | [2H]C([2H])([2H])O[C@@H]1C[C@@H](CO)OC[C@@H]1Nc1ncnc2[nH]cc(C(=O)c3ccc(Oc4ccccc4)cc3Cl)c12 [Compound 13] |  |
| 14.9 | CO[C@@H]1C[C@@H](CO)OC[C@@H]1Nc1ncnc2[nH]cc(C(=O)c3ccc(Oc4ccccc4)cc3F)c12 [Compound 10] |  |
| 12.5 | O=C(c1ccc(Oc2ccccc2)cc1Cl)c1c[nH]c2ncnc(N[C@H]3CO[C@H](CO)CC3(F)F)c12 [Compound 2] | 269 |
| 8.9 | O=C(c1ccc(Oc2ccccc2)cc1Cl)c1c[nH]c2ncnc(N[C@H]3CO[C@H](CO)C[C@H]3OCCO)c12 [Compound 8] |  |
